From US20220306653A1, “MACROCYCLIC INHIBITORS OF MCL-1” (Janssen Pharmaceutica NV, priority 2019, published 2022) come the findings set out here.

Like-named read-outs stand apart in the source and are kept apart here.

The test system of test [1] is MOLP-8 human multiple myeloma cell line. The test is described as follows: MOLP8 Caspase-Glo 3/7 luminescent assay. Type of test: cell-based. Particulars: 2 hours incubation, averaged values over all runs on all batches. From the text:
(§1) MCL-1 is a regulator of apoptosis and is highly over-expressed in tumor cells that escape cell death. The assay evaluates the cellular potency of small-molecule compounds targeting regulators of the apoptosis pathway, primarily MCL-1, Bfl-1, Bcl-2, and other proteins of the Bcl-2 family. Protein-protein inhibitors disrupting the interaction of anti-apoptotic regulators with BH3-domain proteins initiate apoptosis.
The Caspase-Glo® 3/7 Assay is a luminescent assay that measures caspase-3 and -7 activities in purified enzyme preparations or cultures of adherent or suspension cells. The assay provides a proluminescent caspase-3/7 substrate, which contains the tetrapeptide sequence DEVD. This substrate is cleaved to release aminoluciferin, a substrate of luciferase used in the production of light. Addition of the single Caspase-Glo® 3/7 Reagent in an “add-mix-measure” format results in cell lysis, followed by caspase cleavage of the substrate and generation of a “glow-type” luminescent signal.
This assay uses the MOLP-8 human multiple myeloma cell line, which is sensitive to MCL-1 inhibition.
Cell cultures were maintained between 0.2 and 2.0×10^6 cells/mL. The cells were harvested by collection in 50 mL conical tubes. The cells were then pelleted at 500 g for 5 mins before removing supernatant and resuspension in fresh pre-warmed culture medium. The cells were counted and diluted as needed.
The assay reagent was prepared by transferring the buffer solution to the substrate vial and mixing. The solution may be stored for up to 1 week at 4° C. with negligible loss of signal.
Compounds were delivered in assay-ready plates (Proxiplate) and stored at −20° C.
Assays always include 1 reference compound plate containing reference compounds. The plates were spotted with 40 nL of compounds (0.5% DMSO final in cells; serial dilution; 30 μM highest conc. ⅓ dilution, 10 doses, duplicates). The compounds were used at room temperature and 4 μL of pre-warmed media was added to all wells except column 2 and 23. The negative control was prepared by adding 1% DMSO in media. The positive control was prepared by adding the appropriate positive control compound in final concentration of 60 μM in media. The plate was prepared by adding 4 μL negative control to column 23, 4 μL positive control to column 2 and 4 μL cell suspension to all wells in the plate. The plate with cells was then incubated at 37° C. for 2 hours. The assay signal reagent is the Caspase-Glo solution described above, and 8 μL was added to all wells. The plates were then sealed and measured after 30 minutes.
The activity of a test compound was calculated as percent change in apoptosis induction as follows:
LC=median of the Low Control values • =Central Reference in Screener • =DMSO • =0% ΠC=Median of the High Control values • =Scale Reference in Screener • =30 pM of positive control • =100% apoptosis induction
% Effect (AC50)=100−(sample−LC)/(HC−LC)*100
% Control=(sample/HC)*100
% Control min=(sample−LC)/(HC−LC)*100

Test [2] concerns MOLP8 cells. The test is described as follows: MOLP8 CellEvent Caspase-3/7 Green apoptosis activation assay (IncuCyte live-cell kinetic readout). Particulars: Homo sapiens, each independent run listed. Type of test: cell-based. The method, then: as §1
Activation of the apoptotic pathway was measured using the CellEvent™ Caspase-3/7 Green ReadyProbes™ Reagent (Thermo Fisher C10423, C10723). This assay produces a green fluorescent stain in cells that enter the apoptosis pathway. CellEvent® Caspase-3/7 Green reagent is a four amino acid peptide (DEVD) conjugated to a nucleic acid-binding dye that is non-fluorescent when not bound to DNA. The CellEvent® Caspase-3/7 Green reagent is intrinsically non-fluorescent, as the DEVD peptide inhibits binding of the dye to DNA. Upon activation of caspase-3/7 in apoptotic cells, the DEVD peptide is cleaved and the free dye can bind DNA, generating a bright green fluorescence. The activation of Caspase-3 and Caspase-7 is downstream of inhibition of MCL-1 or other apoptosis inhibiting proteins in cell lines that are dependent on them.
The live-cell readout on the IncuCyte permits tracking over time of the Caspase activation. […] The IncuCyte readout also allows one to normalize for cell number, as the suspension cells are hard to distribute evenly.
Signals were measured every 2 h for a duration of 22 h. The ratio of the Caspase mask to the Confluence mask, per image, as raw data, was calculated and the kinetic trace for every well was exported to Genedata Screener for analysis.
In Genedata Screener values for 6 h, 12 h, and 22 h from the kinetic traces were extracted. The values were normalized against negative controls (untreated cells). A standard dose-response analysis was performed on the normalized data.
The following data was reported at each of the following three aforementioned time points: (a) The dose-response curve, (b) The qAC50 and qAC50 Mode, and (c) Max Activity.
Cells were maintained in culture medium containing 10% Heat Inactivated (HI) FBS, 2 mM L-Glutamine and 50 µg/mL Gentamycin phenol red free RPMI-1640. Cells were split at 0.4 million/mL twice a week.
On Day 1, plates containing individual wells with test compounds at 10 mM concentration, 150 nL per well. The final concentrations range from […] compound (and no compound control) and compounds were thawed at room temperature for 1 hour. 25 μl of prewarmed medium was added into each well by multidrop (column 1, 3-22, 24), followed by addition of DMSO control (0.6% DMSO) in column 2. The plate was sealed using Breathe-Easy® sealing membrane and shaken for 30 min at room temperature to dissolve the test compound(s) in medium. The plate was then kept in the incubator for 1 hour at 37° C., 5% CO2.
MOLP8 cells in medium at […] (20000/50 μl final in assay) were prepared with CellEvent™ Caspase-3/7 Green Detection Reagent at 4 μM (2 μM final in assay). Once prepared, the cells were added to the test compound plate in an amount of 20000 and the plate was immediately placed in the IncuCyte and imaging started using following settings: 10× objective, 2 s exposure time in green channel, interval of 2 h, acquisition stopped after 22 h.
For analysis in IncuCyte, a Basic Analysis protocol was defined to calculate the “confluence” and “caspase” areas from the “Phase” and “green” images, respectively, as follows: (a) Confluence: Segmentation Adjustment 1, Hole Fill 0, Adjust Size −2, No filters (b) Caspase: Top-Hat segmentation, Radius 10, Threshold 0.3 GCU, Edge Split On with sensitivity 0, Hole Fill 0, Adjust Size 1, and filter on a minimum Area of 20 μm^2. The analyzer is trained on a sufficient number of positive and negative control wells, as well as compound treated wells, verifying that the “confluence” layer detects both live and dead (condensed) cells. […]

In test [1] (Homo sapiens, MOLP-8, 2 h), `CCn1nc2cc1CSCc1nn(C)c(C)c1-c1c(Cl)ccc3c1c(C)c(C(=O)O)n3CCCOc1cc(cc3ccccc13)SC2` (single isomer, unassigned) [Compound 11] came in with an AC50 of over 30000 nM.

With `Cc1c(C(=O)O)n2c3ccc(Cl)c(c13)-c1c(nn(C)c1C)CNCc1cc(n(C)n1)CSc1cc(c3ccccc3c1)OCCC2` [Compound 4, 15-Chloro-13,21,25,61-tetramethyl-11H,21H,61H-10-oxa-8-thia-4-aza-1(4,1)-indola-2(4,3),6(3,5)-dipyrazola-9(3,1)-naphthalenacyclotridecaphane-12-Carboxylic acid], the AC50 in test [2] (MOLP-8, 6 h, 6 h, read-out: MOLP8 Caspase 3/7 AC50 at 6 h) worked out at 1620 nM; in test [2] (MOLP-8, 12 h, 12 h, read-out: MOLP8 Caspase 3/7 AC50 at 12 h), 1590 nM; in test [2] (MOLP-8, 22 h, 22 h, read-out: MOLP8 Caspase 3/7 AC50 at 22 h) it was 1380 nM; in test [1] (Homo sapiens, MOLP-8, 2 h), 920 nM.

In turn, `CCn1nc2cc1CSc1cc(c3ccccc3c1)OCCCn1c(C(=O)O)c(C)c3c(c(Cl)ccc31)-c1c(nn(C)c1C)CSC2` (single isomer, unassigned) [Compound 10] registered an AC50 in test [1] (Homo sapiens, MOLP-8, 2 h) of 120 nM.

In test [1] (Homo sapiens, MOLP-8, 2 h), `Cc1c(C(=O)O)n2c3ccc(Cl)c(c13)-c1c(nn(C)c1C)CN(C)Cc1cc(n(C)n1)CSc1cc(c3ccccc3c1)OCCC2` (single isomer, unassigned) [Compound 5] had an AC50 of 14500 nM.

In the case of `Cc1[nH]nc2c1-c1c(Cl)ccc3c1c(C)c(C(=O)O)n3CCCOc1cc(cc3ccccc13)SCc1cc(nn1C)CSC2` (single isomer, unassigned) [Compound 17], the AC50 in test [1] was 21300 nM.

`Cc1[nH]nc2c1-c1c(Cl)ccc3c1c(C)c(C(=O)O)n3CCCOc1cc(cc3ccccc13)SCc1cc(nn1C)CSC2` (single isomer, unassigned) [Compound 16]: in test [1], the AC50 amounted to 540 nM.

As for `Cc1c(C(=O)O)n2c3ccc(Cl)c(c13)-c1c(nn(C)c1C)CN(C(C)C)Cc1cc(n(C)n1)CSc1cc(c3ccccc3c1)OCCC2` [Compound 9], in test [1] (Homo sapiens, MOLP-8, 2 h), the AC50 worked out at 160 nM.

Compound `Cc1c(C(=O)O)n2c3ccc(Cl)c(c13)-c1c(nn(C)c1C)CSCc1cc(n(C(C)C)n1)CSc1cc(c3ccccc3c1)OCCC2` (single isomer, unassigned) [Compound 12] yielded an AC50 in test [1] (Homo sapiens, MOLP-8, 2 h) of 510 nM.

In test [1], `Cc1[nH]nc2c1-c1c(Cl)ccc3c1c(C)c(C(=O)O)n3CCCOc1cc(cc3ccccc13)SCc1cc(nn1C)CN(C)C2` (single isomer, unassigned) [Compound 15] returned an AC50 of 15300 nM.

As to `Cc1c(C(=O)O)n2c3ccc(Cl)c(c13)-c1c(nn(C)c1C)CSCc1cc([nH]n1)CSc1cc(c3ccccc3c1)OCCC2` (single isomer, unassigned) [Compound 8], the AC50 in test [1] came to 90 nM.

As for `Cc1c(C(=O)O)n2c3ccc(Cl)c(c13)-c1c(nn(C)c1C)CSCc1cc([nH]n1)CSc1cc(c3ccccc3c1)OCCC2` (single isomer, unassigned) [Compound 7], in test [1] (Homo sapiens, MOLP-8, 2 h), the AC50 came out at 70 nM.

As to `Cc1c(C(=O)O)n2c3ccc(Cl)c(c13)-c1c(nn(C)c1C)CSCc1cc(nn1C(C)C)CSc1cc(c3ccccc3c1)OCCC2` (single isomer, unassigned) [Compound 13], in test [1] (Homo sapiens, MOLP-8, 2 h), the AC50 worked out at 1250 nM.

`Cc1[nH]nc2c1-c1c(Cl)ccc3c1c(C)c(C(=O)O)n3CCCOc1cc(cc3ccccc13)SCc1cc(nn1C)CN(C)C2` (single isomer, unassigned) [Compound 14] had an AC50 in test [1] of 920 nM.
